Data as given in ChEMBL document CHEMBL4265948, “A cardiac glycoside HTF-1 isolated from Helleborus thibetanus Franch displays potent in vitro anti-cancer activity via caspase-9, MAPK and PI3K-Akt-mTOR pathways” (Eur J Med Chem, 2018).
The source made the active and inactive calls. The calls are words filed in the database; no cut-off is given here.

Experiments:
HeLa [1] = assay: Cell cycle arrest in human HeLa cells assessed as accumulation at S phase at 100 nM after 24 hrs by propidium iodide staining based flow cytometry; type: functional
HeLa [2] = assay: Cytotoxicity activity against human HeLa cells after 24 hrs by MTT assay; type: functional, cell-based
HeLa [3] = assay: Cytotoxicity activity against human HeLa cells after 48 hrs by MTT assay; type: functional, cell-based
MCF7 [4] = assay: Cytotoxicity activity against human MCF7 cells after 24 hrs by MTT assay; type: functional, cell-based; conditions: MCF7, 24 h
MCF7 [5] = assay: Cytotoxicity activity against human MCF7 cells after 48 hrs by MTT assay; type: functional, cell-based; conditions: MCF7, 48 h
HepG2 [6] = assay: Cytotoxicity activity against human HepG2 cells after 24 hrs by MTT assay; type: functional, cell-based; conditions: HepG2, 24 h
HepG2 [7] = assay: Cytotoxicity activity against human HepG2 cells after 48 hrs by MTT assay; type: functional, cell-based; conditions: HepG2, 48 h
L02 = assay: Cytotoxicity activity against human LO2 cells after 24 to 48 hrs by MTT assay; type: cell-based
HeLa [8] = assay: Induction of morphological changes in human HeLa cells assessed as cell shrinkage at 200 to 500 nM after 24 hrs by bright field microscopic analysis; type: functional, cell-based
HeLa [9] = assay: Induction of morphological changes in human HeLa cells assessed as increase in floating round cells at 200 to 500 nM after 24 hrs by bright field microscopic analysis; type: functional, cell-based
HeLa [10] = assay: Induction of morphological changes in human HeLa cells assessed as impaired cell adhesion at 200 to 500 nM after 24 hrs by bright field microscopic analysis; type: functional, cell-based
HeLa [11] = assay: Induction of morphological changes in human HeLa cells assessed as wizened nucleus at 200 to 500 nM after 24 hrs by Hoechst 33342 staining based fluorescence microscopic analysis; type: functional, cell-based
HeLa [12] = assay: Induction of morphological changes in human HeLa cells assessed as DNA fragmentation at 200 to 500 nM after 24 hrs by Hoechst 33342 staining based fluorescence microscopic analysis; type: functional, cell-based
HeLa [13] = assay: Induction of morphological changes in human HeLa cells assessed as chromatin condensation at 200 to 500 nM after 24 hrs by Hoechst 33342 staining based fluorescence microscopic analysis; type: functional, cell-based
HeLa [14] = assay: Induction of morphological changes in human HeLa cells assessed as cell shrinkage at 200 to 500 nM after 24 hrs by scanning electron microscopic analysis; type: functional, cell-based
HeLa [15] = assay: Induction of morphological changes in human HeLa cells assessed as thinner microvilli at 200 to 500 nM after 24 hrs by scanning electron microscopic analysis; type: functional, cell-based
HeLa [16] = assay: Induction of morphological changes in human HeLa cells assessed as protrusions in cell membrane at 200 to 500 nM after 24 hrs by scanning electron microscopic analysis; type: functional, cell-based
HeLa [17] = assay: Induction of morphological changes in human HeLa cells assessed as cell membrane blebbing at 200 to 500 nM after 24 hrs by scanning electron microscopic analysis; type: functional, cell-based
HeLa [18] = assay: Induction of morphological changes in human HeLa cells assessed as formation of apoptotic bodies at 200 to 500 nM after 24 hrs by scanning electron microscopic analysis; type: functional, cell-based
HeLa [19] = assay: Induction of apoptosis in human HeLa cells assessed as viable cells at 100 nM after 24 hrs by Annexin-V-FITC/propidium iodide staining based flow cytometry (reference value: 85.8%); type: functional; conditions: read-out: Activity
HeLa [20] = assay: Induction of apoptosis in human HeLa cells assessed as early apoptotic cells at 100 nM after 24 hrs by Annexin-V-FITC/propidium iodide staining based flow cytometry (reference value: 3.08%); type: functional
HeLa [21] = assay: Induction of apoptosis in human HeLa cells assessed as late apoptotic cells at 100 nM after 24 hrs by Annexin-V-FITC/propidium iodide staining based flow cytometry (reference value: 11.1%); type: functional
HeLa [22] = assay: Induction of apoptosis in human HeLa cells assessed as necrotic cells at 100 nM after 24 hrs by Annexin-V-FITC/propidium iodide staining based flow cytometry (reference value: 0.031%); type: functional
HeLa [23] = assay: Induction of apoptosis in human HeLa cells assessed as viable cells at 200 nM after 24 hrs by Annexin-V-FITC/propidium iodide staining based flow cytometry (reference value: 85.8%); type: functional; conditions: read-out: Activity
HeLa [24] = assay: Induction of apoptosis in human HeLa cells assessed as early apoptotic cells at 200 nM after 24 hrs by Annexin-V-FITC/propidium iodide staining based flow cytometry (reference value: 3.08%); type: functional
HeLa [25] = assay: Induction of apoptosis in human HeLa cells assessed as late apoptotic cells at 200 nM after 24 hrs by Annexin-V-FITC/propidium iodide staining based flow cytometry (reference value: 11.1%); type: functional
HeLa [26] = assay: Induction of apoptosis in human HeLa cells assessed as necrotic cells at 200 nM after 24 hrs by Annexin-V-FITC/propidium iodide staining based flow cytometry (reference value: 0.031%); type: functional
HeLa [27] = assay: Induction of apoptosis in human HeLa cells assessed as viable cells at 500 nM after 24 hrs by Annexin-V-FITC/propidium iodide staining based flow cytometry (reference value: 85.8%); type: functional; conditions: read-out: Activity
HeLa [28] = assay: Induction of apoptosis in human HeLa cells assessed as early apoptotic cells at 500 nM after 24 hrs by Annexin-V-FITC/propidium iodide staining based flow cytometry (reference value: 3.08%); type: functional
HeLa [29] = assay: Induction of apoptosis in human HeLa cells assessed as late apoptotic cells at 500 nM after 24 hrs by Annexin-V-FITC/propidium iodide staining based flow cytometry (reference value: 11.1%); type: functional
HeLa [30] = assay: Induction of apoptosis in human HeLa cells assessed as necrotic cells at 500 nM after 24 hrs by Annexin-V-FITC/propidium iodide staining based flow cytometry (reference value: 0.031%); type: functional
HeLa [31] = assay: Cell cycle arrest in human HeLa cells assessed as accumulation at S phase at 200 nM after 24 hrs by propidium iodide staining based flow cytometry relative to control; type: functional
HeLa [32] = assay: Cell cycle arrest in human HeLa cells assessed as accumulation at sub-G1 phase at 200 nM after 24 hrs by propidium iodide staining based flow cytometry; type: functional
HeLa [33] = assay: Inhibition of colony formation in human HeLa cells at 50 nM after 24 hrs by crystal violet staining based microscopic analysis; type: functional, cell-based
HeLa [34] = assay: Inhibition of colony formation in human HeLa cells assessed as reduction in colony size at 50 nM after 24 hrs by crystal violet staining based microscopic analysis; type: functional, cell-based
HeLa [35] = assay: Antiproliferative activity against human HeLa cells assessed as inhibition of cell proliferation at 100 to 200 nM after 24 hrs by Ki-67/Hoechst 33342 staining based fluorescence microscopic analysis; type: functional
HeLa [36] = assay: Antiproliferative activity against human HeLa cells assessed as inhibition of cell proliferation at 100 to 200 nM after 24 hrs by Edu/Hoechst 33342 staining based fluorescence microscopic analysis; type: functional
HeLa [37] = assay: Antimigratory activity in human HeLa cells at 25 to 50 nM after 24 to 48 hrs by wound healing assay; type: functional, cell-based
HeLa [38] = assay: Antiinvasive activity in human HeLa cells at 50 nM after 48 hrs by crystal violet staining based microscopic analysis; type: functional, cell-based
HeLa [39] = assay: Induction of apoptosis in human HeLa cells assessed as cleaved caspase-3 expression at 50 to 200 nM after 24 hrs by Western blot analysis; type: functional, cell-based
HeLa [40] = assay: Induction of apoptosis in human HeLa cells assessed as cleaved caspase-9 expression at 50 to 200 nM after 24 hrs by Western blot analysis; type: functional, cell-based
HeLa [41] = assay: Induction of apoptosis in human HeLa cells assessed as cleaved caspase-7 expression at 50 to 200 nM after 24 hrs by Western blot analysis; type: functional, cell-based
HeLa [42] = assay: Induction of double strand breaks in human HeLa cells assessed as increase in phospho-gammaH2AX expression at 50 to 200 nM after 24 hrs by Western blot analysis; type: functional, cell-based
HeLa [43] = assay: Down regulation of FEN1 expression in human HeLa cells at 50 to 200 nM after 24 hrs by Western blot analysis; type: functional, cell-based
HeLa [44] = assay: Induction of apoptosis in human HeLa cells assessed as […] in cleaved PARP expression at 50 to 200 nM after 24 hrs by Western blot analysis; type: functional, cell-based
HeLa [45] = assay: Down regulation of survivin expression in human HeLa cells at 50 to 200 nM after 24 hrs by Western blot analysis; type: functional, cell-based
HeLa [46] = assay: Down regulation of Bcl2 expression in human HeLa cells at 50 to 200 nM after 24 hrs by Western blot analysis; type: functional, cell-based
[47] = biological target: c-Jun N-terminal kinase, JNK (Homo sapiens) (UniProt P45983+P53779+P45984); assay: Activation of JNK phosphorylation in human HeLa cells after 24 hrs by Western blot analysis; type: cell-based
[48] = biological target: Mitogen-activated protein kinase; ERK1/ERK2 (Homo sapiens) (UniProt P27361+P28482); assay: Inhibition of ERK1/2 phosphorylation in human HeLa cells at 50 to 200 nM after 24 hrs by Western blot analysis; type: cell-based
Mitogen-activated protein kinase; ERK1/ERK2 (Homo sapiens), sequence (P27361 whole entry, looked up): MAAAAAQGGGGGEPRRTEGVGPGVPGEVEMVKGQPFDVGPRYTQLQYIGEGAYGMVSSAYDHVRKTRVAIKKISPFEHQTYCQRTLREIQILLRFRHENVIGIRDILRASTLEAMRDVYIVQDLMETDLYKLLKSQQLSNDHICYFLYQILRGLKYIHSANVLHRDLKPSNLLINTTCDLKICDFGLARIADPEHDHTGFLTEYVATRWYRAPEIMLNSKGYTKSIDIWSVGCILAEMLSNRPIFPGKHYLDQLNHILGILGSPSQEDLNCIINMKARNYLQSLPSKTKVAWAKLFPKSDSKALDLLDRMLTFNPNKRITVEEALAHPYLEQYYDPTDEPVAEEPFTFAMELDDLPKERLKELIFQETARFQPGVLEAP
Mitogen-activated protein kinase; ERK1/ERK2 (Homo sapiens), sequence (P28482 whole entry, looked up): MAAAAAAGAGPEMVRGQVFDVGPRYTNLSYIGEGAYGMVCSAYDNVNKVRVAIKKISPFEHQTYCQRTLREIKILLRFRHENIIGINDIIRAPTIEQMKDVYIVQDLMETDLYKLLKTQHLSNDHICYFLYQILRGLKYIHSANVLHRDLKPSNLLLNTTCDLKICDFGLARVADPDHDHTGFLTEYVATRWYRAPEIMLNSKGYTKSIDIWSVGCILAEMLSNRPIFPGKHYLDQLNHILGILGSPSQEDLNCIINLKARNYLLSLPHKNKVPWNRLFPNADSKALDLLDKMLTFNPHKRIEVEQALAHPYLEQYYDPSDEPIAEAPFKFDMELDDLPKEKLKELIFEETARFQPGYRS

[49] = biological target: MAP kinase p38 (Homo sapiens) (UniProt O15264+Q15759+Q16539+P53778); assay: Effect on p38 phosphorylation in human HeLa cells at 50 to 200 nM after 24 hrs by Western blot analysis; type: cell-based
HeLa [50] = assay: Inhibition of PI3K phosphorylation in human HeLa cells after 24 hrs by Western blot analysis; type: cell-based
[51] = biological target: RAC-alpha serine/threonine-protein kinase (Homo sapiens) (UniProt P31749); assay: Inhibition of AKT phosphorylation in human HeLa cells after 24 hrs by Western blot analysis; type: cell-based
RAC-alpha serine/threonine-protein kinase (Homo sapiens), sequence (P31749 whole entry): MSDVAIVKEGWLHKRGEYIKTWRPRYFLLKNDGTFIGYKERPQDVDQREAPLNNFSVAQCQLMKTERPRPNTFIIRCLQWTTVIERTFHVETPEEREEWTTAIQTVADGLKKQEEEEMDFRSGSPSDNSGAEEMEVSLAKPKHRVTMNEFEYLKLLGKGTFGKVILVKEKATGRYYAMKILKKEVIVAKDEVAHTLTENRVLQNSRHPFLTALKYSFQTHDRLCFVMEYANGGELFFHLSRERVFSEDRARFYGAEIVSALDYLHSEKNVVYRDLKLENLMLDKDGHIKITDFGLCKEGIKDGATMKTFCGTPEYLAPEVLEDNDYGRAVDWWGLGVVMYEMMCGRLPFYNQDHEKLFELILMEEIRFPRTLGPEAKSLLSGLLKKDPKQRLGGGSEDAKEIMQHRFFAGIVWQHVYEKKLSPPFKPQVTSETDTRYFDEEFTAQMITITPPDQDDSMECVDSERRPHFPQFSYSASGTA

[52] = biological target: Serine/threonine-protein kinase mTOR (Homo sapiens) (UniProt P42345); assay: Inhibition of mTOR phosphorylation in human HeLa cells after 24 hrs by Western blot analysis; type: cell-based
[53] = biological target: Ribosomal protein S6 kinase (Homo sapiens) (UniProt P51812+Q9UBS0+O75676+Q15349+O75582+P23443+Q9UK32+Q15418); assay: Inhibition of p70S6K phosphorylation in human HeLa cells after 24 hrs by Western blot analysis; type: cell-based

SMILES: C[C@]12CC[C@H](O[C@@H]3C[C@H](CO)[C@@H](O)[C@H](O)[C@H]3O)C[C@@H]1CC[C@@H]1[C@@H]2CC[C@]2(C)[C@@H](c3ccc(=O)oc3)[C@@H](O)C[C@]12O
- Activity (HeLa [1]): Active
- IC50 (HeLa [2]): 546 nM
- IC50 (HeLa [3]): 158 nM
- IC50 (MCF7 [4]): 1020 nM
- IC50 (MCF7 [5]): 239 nM
- IC50 (HepG2 [6]): 1410 nM
- IC50 (HepG2 [7]): 221 nM
- Activity (L02): Non-Toxic
- Activity (HeLa [8]): Active
- Activity (HeLa [9]): Active
- Activity (HeLa [10]): Active
- Activity (HeLa [11]): Active
- Activity (HeLa [12]): Active
- Activity (HeLa [13]): Active
- Activity (HeLa [14]): Active
- Activity (HeLa [15]): Active
- Activity (HeLa [16]): Active
- Activity (HeLa [17]): Active
- Activity (HeLa [18]): Active
- viability at 0.1 µM (HeLa [19]): 82.5%
- Activity (HeLa [20]): 10.2%
- Activity (HeLa [21]): 7.28%
- Activity (HeLa [22]): 0.062%
- viability at 0.2 µM (HeLa [23]): 52.9%
- Activity (HeLa [24]): 38.3%
- Activity (HeLa [25]): 8.67%
- Activity (HeLa [26]): 0.1%
- viability at 0.5 µM (HeLa [27]): 46.9%
- Activity (HeLa [28]): 36%
- Activity (HeLa [29]): 16.6%
- Activity (HeLa [30]): 0.56%
- Activity (HeLa [31]): 73%
- Activity (HeLa [32]): Active
- inhibition (HeLa [33]): Active
- inhibition (HeLa [34]): Active
- inhibition (HeLa [35]): Active
- inhibition (HeLa [36]): Active
- Activity (HeLa [37]): Active
- Activity (HeLa [38]): Active
- Activity (HeLa [39]): Active
- Activity (HeLa [40]): Active
- Activity (HeLa [41]): Active
- Activity (HeLa [42]): Active
- Activity (HeLa [43]): Active
- Activity (HeLa [44]): Active
- Activity (HeLa [45]): Active
- Activity (HeLa [46]): Active
- Activity [47]: Active
- inhibition [48]: Active
- Activity [49]: inactive
- inhibition (HeLa [50]): Dose-dependent effect
- inhibition [51]: Dose-dependent effect
- inhibition [52]: Dose-dependent effect
- inhibition [53]: Dose-dependent effect

SMILES: C[C@]12CC[C@H](O)C[C@H]1CC[C@@H]1[C@@H]2CC[C@]2(C)[C@@H](c3ccc(=O)oc3)CC[C@]12O [BUFALIN]
- IC50 (HeLa [2]): 594 nM
- IC50 (HeLa [3]): 280 nM
- viability at 0.2 µM (HeLa [23]): 53.3%
- Activity (HeLa [24]): 30.9%
- Activity (HeLa [25]): 13.9%
- Activity (HeLa [26]): 1.86%
